# Measured values taken from patent US10391095B2, “DNA-PK inhibitors” (Vertex Pharmaceuticals Incorporated, priority 2012, dated 2019).
# pKi: −log10 of the molar value.
# Target: DNA-PK (Homo sapiens, UniProt P78527)
# Test: DNA-PK inhibition assay (radiometric, 33P-ATP)
# Format: biochemical
# Settings: 100 μM ATP, competitive tight-binding fit
# In short: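 Approx. 6 nM DNA-PK with 10 µg/mL sheared dsDNA, 0.8 mg/mL peptide substrate and 100 µM 33P-ATP in HEPES pH 7.5, 10 mM MgCl2; 45 min, phosphoric acid quench. Phosphopeptide captured on filter plates and counted by scintillation; Ki from a competitive tight-binding model fit.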
row,Compound,pKi
1,Cc1ccc(-c2cc(NCC(C)c3cccc4c3OCC(=O)N4)ncn2)cn1 (stereo not shown) [Compound 435],> 7.52
2,CCOc1ccccc1C(C)CNc1cc(-c2ccc(C)nc2)ncn1 (stereo not shown) [Compound 91],> 7.52
3,COc1cc(C(=O)NOCc2ccccc2)ccc1C(C)CNc1cc(-c2ccc(C)nc2)ncn1 (stereo not shown) [Compound 222],> 7.52
4,CNC(=O)c1ccc([C@H](C)CNc2cc(-c3ccc4c(c3)OCC(=O)N4)ncn2)c(OC)c1 [Compound 314],> 7.52
5,CNC(=O)c1ccnc2c([C@H](C)CNc3cc(-c4ccc(N5CCOCC5)nc4)ncn3)cccc12 [Compound 641],> 7.52
6,CNC(=O)c1ccnc2c([C@H](C)CNc3cc(-c4ccc(NC5CCN(Cc6ccccc6)C5)nc4)ncn3)cccc12 (stereo partly shown) [Compound 701],> 7.52
7,Cc1ncc(-c2cc(NC[C@@H](C)c3cccc4cc(F)cnc34)ncn2)cn1 [Compound 667],> 7.52
8,CCOc1ccccc1CCNc1cc(-c2ccc(N3CC[C@@H](O)C3)nc2)ncn1 [Compound 99],> 7.52
9,CNC(=O)c1ccc([C@H](C)CNc2cc(-c3ccc4c(c3)CCN4C)ncn2)c(OC)c1 [Compound 342],> 7.52
10,COc1ccsc1C(C)CNc1cc(-c2cnc3c(cnn3CCO)c2)ncn1 (stereo not shown) [Compound 233],> 7.52
11,CNCCN(C)c1ccc(-c2cc(NC[C@@H](C)c3cccc4c(C(=O)NC)ccnc34)ncn2)cn1 [Compound 706],> 7.52
12,CNC(=O)c1ccc([C@H](C)CNc2cc(-c3ccnc4c3ccn4C3COC3)ncn2)c(OC)c1 [Compound 479],> 7.52
13,Cc1ccc(-c2cc(NCCc3cccc4c3OCC4)ncn2)cn1 [Compound 60],> 7.52
14,CNC(=O)c1ccc([C@H](C)CNc2cc(-c3ccc4c(cnn4C4COC4)c3)ncn2)c(OC)c1 [Compound 243],> 7.52
15,C[C@H](CNc1cc(-c2cnc3ccccc3c2)ncn1)c1ccnc2c1OCCO2 [Compound 559],> 7.52
16,CNC(=O)c1ccc(C(C)CNc2cc(-c3cnc4c(cnn4C[C@@H](O)CO)c3)ncn2)c(OC)c1 (stereo partly shown) [Compound 225],> 7.52
17,CNC(=O)c1ccc([C@H](C)CNc2cc(-c3ccc4c(c3)CC(=O)N4)ncn2)c(OC)c1 [Compound 310],> 7.52
18,COc1ccccc1CCNc1cc(-c2cnc3c(cnn3CCC(C)C)c2)ncn1 [Compound 45],> 7.52
19,CC(=O)Nc1cnc2c([C@H](C)CNc3cc(-c4ccc(C)nc4)ncn3)cccc2c1 [Compound 742],> 7.52
20,CNC(=O)c1ccc([C@H](C)CNc2cc(-c3ccc4c(c3)CNC4=O)ncn2)c(OC)c1 [Compound 312],> 7.52
21,COc1cc(C(N)=O)ccc1C(C)CNc1cc(-c2ccc(N3CCN(C(C)=O)CC3)nc2)ncn1 (stereo not shown) [Compound 131],> 7.52

# Results, then the compound that gave them:
row,pKi,Compound
1,> 7.52,CNC(=O)c1ccnc2c([C@H](C)CNc3cc(-c4cnc(N)c(CO)c4)ncn3)cccc12 [Compound 970]
2,> 7.52,CNC(=O)c1c(F)cnc2c([C@H](C)CNc3cc(-c4cncc(C)c4)ncn3)cccc12 [Compound 772]
3,> 7.52,CNC(=O)c1c(F)cnc2c([C@H](C)CNc3cc(-c4ccnc(C5CC5)c4)ncn3)cccc12 [Compound 917]
4,> 7.52,CNC(=O)c1c(F)cnc2c([C@H](C)CNc3cc(-c4cn[nH]c4)ncn3)cccc12 [Compound 785]
5,> 7.52,CNC(=O)c1c(F)cnc2c([C@H](C)CNc3cc(-c4csc(OC)n4)ncn3)cccc12 [Compound 787]
6,> 7.52,CNC(=O)c1c(F)cnc2c([C@H](C)CNc3cc(-c4cnc(OC)c(CO)c4)ncn3)cccc12 [Compound 884]
7,> 7.52,CNC(=O)c1ccnc2c([C@H](C)CNc3cc(-c4ccc(C(N)=O)cc4)ncn3)cccc12 [Compound 759]
8,> 7.52,CNC(=O)c1ccnc2c([C@H](C)CNc3cc(-c4cnc(NC)c(C)c4)ncn3)cccc12 [Compound 961]
9,> 7.52,CNC(=O)c1c(F)cnc2c([C@H](C)CNc3cc(-c4ccnc(C5CCC5)c4)ncn3)cccc12 [Compound 919]
10,> 7.52,CNC(=O)c1ccnc2c([C@H](C)CNc3cc(-c4ccnc(C)c4)ncn3)cccc12 [Compound 771]
